Laboratory results from patent US8680076B2, “Methods of treatment, improvement and prevention using haloaryl substituted aminopurines” (Signal Pharmaceuticals, LLC, priority 2010, dated 2014).
Counter-ions that a name gives are not always drawn.

Legend:
Assay type in all cases: in vivo
[1] = tested on: CD-IGS rats; assay: Rat model of excisional wound healing; details: 0.5 mg/kg qd orally
Protocol: Male CD-IGS rats (Strain code 001; n=32-52 per experiment) were obtained from Charles River Laboratories at a body weight of 175-195 g. Rats were housed in regular shoebox cages and allowed to become acclimated for a minimum of 1 week. Rats were fed Harlan Teklad (No. 7001) 4% mouse/rat diet and water ad libitum and were maintained on a 12-hour light/dark cycle.
Suspensions of Compound JNKi-1 were prepared in aqueous 0.5% CMC and 0.25% Tween-80. The formulations were homogenized using a TEFLON® pestle and mortar (Potter-Elvehjem tissue grinder). Vehicle (aqueous solution of 0.5% carboxymethylcellulose, and 0.25% Tween-80) and test article compounds were dosed at a volume of 5 mL/kg. Groups of rats (n=4-8/group) were dosed orally with vehicle, Dexamethasone (0.5 mg/kg) or Compound JNKi-1 (10 mg/kg, 30 mg/kg or 60 mg/kg) daily throughout the study starting 4 days prior to the procedure and continuing for up to […]. Compound JNKi-1 treated groups and the respective vehicle control group were dosed twice daily (bid) with an 8 hr separation between the doses. Dexamethasone treated animals and the respective vehicle control group were dosed once daily (qd) for the duration of the study.
Rats were anesthetized by inhaled isoflurane and the dorsal area was shaved and swabbed with 70% alcohol. Two points were marked 5.5 and 8.5 cm from the base of the skull along the midline. Four further points were marked 1 cm at either side of the midline, two at each of the marked points. These delineated the centers of four excisional wounds. The biopsy punch (6 mm diameter) was aligned vertically over the center of a mark and the epidermis, dermis and panniculus carnosus pierced by applying pressure and twisting at the same time. The skin plug was then removed. This was repeated for the remaining wounds (FIG. 15). The animal was then allowed to recover. All animals were housed singly during the experiment. Rats were monitored twice a day for the first 24 hours following the procedure and then daily until the end of the study. Body weights were recorded two or three times per week. Animals were sacrificed via CO2 asphyxiation at various time-points (day 1, 5, 10 or 14) following wounding.
Each wound size was measured using an electronic digital caliper and the percent of wound remaining open was calculated relative to the initial wound size recorded on day 0 (day of wounding procedure). Four values were averaged for each animal (four wounds on each rat). Measurements were taken at different time-points throughout the study.
Wounds and 2 mm of surrounding tissue were excised using an 8 mm biopsy punch. Wounds were harvested on days 1, 5, 10 and 14 following the procedure. Tissues were fixed in neutral buffered formalin for 3 h then transferred to 100% ethanol. Tissues were paraffin-embedded and four μm cross sections were cut and mounted on poly-lysine slides and stored in slide boxes at room temperature.
One slide for each specimen was stained for H&E to assess granulation-tissue formation and re-epithelialization of the wound gap.
Samples collected on day 10 and 14 were stained with Trichrome Stain (Masson) Kit (Sigma, HT15) to evaluate collagen deposition and remodeling.
Tissue sections were deparaffinized and hydrated to deionized (DI) water. Sections were incubated in preheated Bouin' Solution (Sigma, HT10-132) at 56° C. overnight and then thoroughly rinsed in tap water. Sections were stained in Weigert's Iron Hematoxylin solution (Sigma, HT10-79) for 15 min, washed, and counterstained with Biebrich Scarlet Acid Fuchsin solution. After washing, sections were incubated with Phosphotungstic-Phosphomolybdic acid solution for 15 min and then stained with Aniline Blue solution. Sections were dehydrated and cleared in xylene.
Wound healing was evaluated on day 10 and day 14 after the procedure. H&E sections were scored for re-epithelialization using the following criteria: […]

[2] = tested on: Tsk-1 mice; assay: Tight skin-1 (Tsk-1) mouse model of systemic sclerosis; details: 50 mg/kg/day IP, 6 weeks
Protocol: The antifibrotic effects of the JNK inhibitor Compound JNKi-1 were tested in a murine tight skin-1 (Tsk-1) model of systemic sclerosis. In this model, a dominant mutation in the fibrillin 1 gene (Fbn1^Tsk+/−) leads to a systemic sclerosis-like disease with inflammatory infiltrates and massive fibrosis of the skin (Akhmetshina A, Venalis P, Dees C, Busch N, Zwerina J, Schett G, et al., Treatment with imatinib prevents fibrosis in different preclinical models of systemic sclerosis and induces regression of established fibrosis, Arthritis Rheum. 2009; 60(1):219-24).
Male and female TSK-1 mice were used. Mice were fed a standard diet with water ad libitum. The room temperature was kept constant at 22° C. with a humidity of 60%.
Compound JNKi-1 was dissolved in 0.5% carboxymethylcellulose (CMC)/0.25% Tween 80 in water. As vehicle control a solution of 0.5% CMC/0.25% Tween 80 in water was used. Imatinib mesylate was dissolved in 0.9% NaCl at a concentration of 50 mg/kg/day in a total volume of 100 μL.
Groups of Tsk-1 mice (n=4/sex/group) were assigned to one of five treatment groups: • Untreated wildtype (Fbn1^Tsk−/−) group received 0.5% CMC/0.25% Tween 80 in water orally (PO) twice daily (BID). • Untreated Fbn1Tsk+/− mice received 0.5% CMC/0.25% Tween 80 in water orally BID. • Compound JNKi-1-treated Fbn1^Tsk+/− received 50 mg/kg orally BID. • Compound JNKi-1-treated Fbn1^Tsk+/− received 150 mg/kg orally BID. • Imatinib mesylate-treated Fbn1^Tsk+/− group received 50 mg/kg/day administered intraperitoneally (IP).
Treatments with Compound JNKi-1 and control compound were started at Week 4. After 6 weeks of treatment, mice were sacrificed, and the antifibrotic effects from each treatment were analyzed.
Antifibrotic effects were determined by measuring the dermal thickness and quantifying the numbers of myofibroblasts in the lesional skin. Dermal thickness was determined by measuring the distance from the epidermal/dermal border to the dermal/subdermal border in H & E-stained sections at four different sites. The number of myofibroblasts was quantified by staining for alpha smooth muscle actin (α-SMA) in paraffin-embedded sections. Data are expressed as mean±standard error of the mean (SEM). SPSS17.0 software and the Mann-Whitney-U-test were used for statistical analyses. A p-value of less than 0.05 was considered statistically significant.

[3] = tested on: DBA/2J mice, bleomycin-induced skin fibrosis; assay: Bleomycin-induced dermal fibrosis mouse model (preventive treatment); details: 50 mg/kg/day IP, mean±SEM
Protocol: The selective JNK inhibitor Compound JNKi-1 was tested in a bleomycin-induced dermal fibrosis mouse model, which is considered to represent the early and inflammatory stages of systemic sclerosis (Akhmetshina A, Venalis P, Dees C, Busch N, Zwerina J, Schett G, Distler O, Distler J H, Treatment with imatinib prevents fibrosis in different preclinical models of systemic sclerosis and induces regression of established fibrosis, Arthritis Rheum. 2009; 60(1):219-24). […] In animal models it will similarly induce injury and fibrosis at the site of delivery.
Male and female DBA/2J mice were used. Mice were fed a standard diet with water ad libitum. The room temperature was kept constant at 22° C. with a humidity of 60%.
Compound JNKi-1 was dissolved in 0.5% carboxymethylcellulose (CMC)/0.25% Tween 80 in water. Bleomycin was dissolved in 0.9% sodium chloride (NaCl) at a concentration of 0.5 mg/mL in a total volume of 100 μL. The positive control compound Imatinib mesylate was dissolved in 0.9% NaCl at a concentration of 50 mg/kg/day in a total volume of 100 μL.
Two different dose levels of the JNK-inhibitor Compound JNKi-1 (50 mg/kg and 150 mg/kg, administered twice daily) were used to analyze the anti-fibrotic activity in a mouse model of bleomycin-induced skin fibrosis. […] DBA/2J mice (n=5/sex/group) were assigned to one of five treatment groups: • Control group: 0.5% CMC/0.25% Tween 80 in water orally (PO) twice daily (BID) and subcutaneous injections of 100 μL 0.9% NaCl. • Untreated bleomycin group: intradermal injection of bleomycin and 0.5% CMC/0.25% Tween 80 in water orally BID. • 50 mg/kg Compound JNKi-1: intradermal injection of bleomycin and Compound JNKi-1 orally BID. • 150 mg/kg Compound JNKi-1: intradermal injection of bleomycin and Compound JNKi-1 orally BID. • Positive control group: intradermal injection of bleomycin and imatinib 50 mg/kg/day administered intraperitoneally (IP).
Localized dermal fibrosis was induced by injection of bleomycin every other day for 3 weeks in defined areas of the upper back. Compound JNKi-1 or imatinib was administrated starting from the first dose of bleomycin.
The dermal thickness was determined by staining with hematoxylin and eosin (H & E). The activated fibroblasts (myofibroblasts) at the fibrotic lesions were quantified by immunohistochemistry (IHC) for alpha smooth muscle actin (α-SMA). Collagen concentration in lesional skin was analyzed by hydroxyproline assay. Data are expressed as mean±standard error of the mean (SEM). SPSS17.0 software and the Mann-Whitney-U-test were used for statistical analyses. A p-value of less than 0.05 was considered statistically significant.

C[C@@H]1C[C@H]2[C@@H]3CCC4=CC(=O)C=C[C@]4(C)[C@@]3(F)[C@@H](O)C[C@]2(C)[C@@]1(O)C(=O)CO [Dexamethasone, reference compound]
loss of initial body weight mass [1]: about 10%
wound gap remaining open at day 10 post wounding [1]: approximately 70%

Cc1ccc(NC(=O)c2ccc(CN3CCN(C)CC3)cc2)cc1Nc1nccc(-c2cccnc2)n1 [imatinib mesylate, reference compound]
decrease of number of myofibroblasts [2]: 99%±15%
decrease of hypodermal thickness ([2]; compared to untreated mice): 71%±7%

Cc1ccc(NC(=O)c2ccc(CN3CCN(C)CC3)cc2)cc1Nc1nccc(-c2cccnc2)n1 [imatinib, reference compound]
reduction in dermal thickening ([3]; 3 weeks bleomycin): 46%±5%
decrease of myofibroblast count [3]: 51%±10%
